Test results published in ChEMBL document CHEMBL1201862, “PubChem BioAssay data set” (2004).
The source made the active and inactive calls. Rule as the data show it, for most assays here: actives have a measured IC50 and inactives only a lower limit.

Columns and labels:
Assay type in all cases: functional
[1] = molecular target: T1, Replicative DNA helicase DnaB (Mycobacterium tuberculosis, UniProt P9WMR3); experiment: DnaB intein splicing inhibitors, dose response, biochemical, cell-free fluorescence (AID 449749)
T1 sequence (P9WMR3 whole entry): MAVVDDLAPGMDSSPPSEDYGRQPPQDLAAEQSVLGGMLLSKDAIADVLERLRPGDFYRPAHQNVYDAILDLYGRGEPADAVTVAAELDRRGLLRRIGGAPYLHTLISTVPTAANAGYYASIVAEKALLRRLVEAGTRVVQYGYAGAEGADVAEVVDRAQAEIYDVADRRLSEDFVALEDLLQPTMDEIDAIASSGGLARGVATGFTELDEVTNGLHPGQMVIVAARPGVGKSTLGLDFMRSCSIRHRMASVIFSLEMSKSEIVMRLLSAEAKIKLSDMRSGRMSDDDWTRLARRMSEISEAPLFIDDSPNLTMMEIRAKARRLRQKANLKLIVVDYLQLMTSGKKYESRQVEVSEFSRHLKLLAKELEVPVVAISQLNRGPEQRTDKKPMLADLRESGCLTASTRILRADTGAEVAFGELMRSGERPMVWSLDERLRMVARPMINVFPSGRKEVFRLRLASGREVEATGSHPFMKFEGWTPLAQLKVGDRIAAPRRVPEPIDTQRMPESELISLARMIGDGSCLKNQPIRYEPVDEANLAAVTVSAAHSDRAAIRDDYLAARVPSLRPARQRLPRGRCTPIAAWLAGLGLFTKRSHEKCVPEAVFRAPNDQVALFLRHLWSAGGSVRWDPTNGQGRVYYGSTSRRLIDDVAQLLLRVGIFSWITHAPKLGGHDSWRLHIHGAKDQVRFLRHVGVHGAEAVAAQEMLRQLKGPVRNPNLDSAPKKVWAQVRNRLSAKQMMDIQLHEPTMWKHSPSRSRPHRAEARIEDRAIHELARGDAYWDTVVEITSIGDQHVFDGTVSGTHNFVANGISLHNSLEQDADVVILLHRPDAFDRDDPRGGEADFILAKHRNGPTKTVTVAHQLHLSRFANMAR

[2] = molecular target: T2, Sentrin-specific protease 7 (Homo sapiens, UniProt Q9BQF6);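 also: Luminescence-based dose-response confirmation of ultra-high-throughput screening hits, measuring inhibition of SENP7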
T2 sequence (Q9BQF6 whole entry): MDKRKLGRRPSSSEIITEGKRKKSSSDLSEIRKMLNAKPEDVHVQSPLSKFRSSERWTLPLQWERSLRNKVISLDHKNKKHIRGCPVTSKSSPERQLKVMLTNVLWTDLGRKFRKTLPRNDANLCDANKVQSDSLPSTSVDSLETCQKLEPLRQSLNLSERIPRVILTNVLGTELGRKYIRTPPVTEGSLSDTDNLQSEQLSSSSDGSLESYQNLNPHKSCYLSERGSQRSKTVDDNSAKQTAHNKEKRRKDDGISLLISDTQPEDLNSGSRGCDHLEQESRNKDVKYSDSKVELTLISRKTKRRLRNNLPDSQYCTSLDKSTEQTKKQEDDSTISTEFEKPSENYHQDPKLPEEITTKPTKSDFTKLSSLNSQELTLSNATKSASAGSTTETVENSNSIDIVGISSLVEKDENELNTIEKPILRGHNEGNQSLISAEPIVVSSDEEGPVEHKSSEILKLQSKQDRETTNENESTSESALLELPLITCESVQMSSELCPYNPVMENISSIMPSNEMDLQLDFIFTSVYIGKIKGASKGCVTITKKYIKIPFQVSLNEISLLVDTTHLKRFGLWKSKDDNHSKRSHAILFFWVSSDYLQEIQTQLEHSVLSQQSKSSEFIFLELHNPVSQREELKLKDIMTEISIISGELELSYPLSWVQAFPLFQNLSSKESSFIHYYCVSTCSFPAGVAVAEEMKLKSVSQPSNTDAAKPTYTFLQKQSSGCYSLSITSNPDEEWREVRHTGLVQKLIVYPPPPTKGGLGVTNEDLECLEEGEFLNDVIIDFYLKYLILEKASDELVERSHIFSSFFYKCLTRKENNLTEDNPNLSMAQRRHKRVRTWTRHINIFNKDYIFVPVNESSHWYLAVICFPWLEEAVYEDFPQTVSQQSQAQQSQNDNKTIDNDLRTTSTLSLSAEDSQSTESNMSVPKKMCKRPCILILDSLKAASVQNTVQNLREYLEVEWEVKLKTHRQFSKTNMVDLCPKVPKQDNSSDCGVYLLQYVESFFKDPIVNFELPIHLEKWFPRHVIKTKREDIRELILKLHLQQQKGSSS

Caspase-3 = molecular target: T3, Caspase-3 (Homo sapiens, UniProt P42574);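 also: Dose-response selectivity test against caspase-3 for candidate inhibitors of sentrin-specific proteases (SENPs)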
T3 sequence (P42574 whole entry): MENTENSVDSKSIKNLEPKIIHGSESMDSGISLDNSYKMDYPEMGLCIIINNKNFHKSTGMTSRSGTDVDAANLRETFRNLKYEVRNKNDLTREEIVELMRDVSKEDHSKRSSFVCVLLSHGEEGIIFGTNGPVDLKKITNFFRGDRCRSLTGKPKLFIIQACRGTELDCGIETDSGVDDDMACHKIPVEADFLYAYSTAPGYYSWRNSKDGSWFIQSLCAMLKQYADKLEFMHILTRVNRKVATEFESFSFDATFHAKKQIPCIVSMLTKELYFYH

[3] = molecular target: T4, Sentrin-specific protease 8 (Homo sapiens, UniProt Q96LD8); experiment: inhibition of human SENP8 cleavage activity – biochemical, luminescence, SAR follow-up (AID 504501)
T4 sequence (Q96LD8 whole entry): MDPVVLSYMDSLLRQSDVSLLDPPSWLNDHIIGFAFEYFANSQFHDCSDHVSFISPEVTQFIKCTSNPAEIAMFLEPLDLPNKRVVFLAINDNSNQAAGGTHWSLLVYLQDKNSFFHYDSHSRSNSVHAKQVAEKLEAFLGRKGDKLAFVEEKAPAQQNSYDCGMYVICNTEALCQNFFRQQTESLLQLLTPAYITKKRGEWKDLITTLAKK

O=C(NN=c1c(=O)c2ccccc2c1=O)c1ccccc1
AC50 [1]: 3.42 µM (active)
IC50 [2]: 10.7 µM (active)
IC50 (Caspase-3): > 100 µM (inactive)
IC50 [3]: 19.8 µM (active)
